SMILES strings stand for the structures.

We go through 31 compounds from patent US8633245B2, “PAI-1 inhibitor” (Institute of Medicinal Molecular Design, Inc., priority 2008, dated 2014).

The assay has as its target T1, recombinant human PAI-1 (Homo sapiens, UniProt P05121).
T1 construct: purchased Molecular Innovations, Inc
Description: Test Example 2: human PAI-1 inhibitory activity (tPA fluorogenic substrate, pH 7.4 HEPES buffer). Type of assay: biochemical. The conditions noted are these: for Inhibition Rate of PAI-1 Activity (%): human PAI-1. The method, then:
0.1 M HEPES, 0.1 M NaCl. 1 mM EDTA. 0.1% Polyethylene glycol 8,000 (Hampton Research Corporation),
2 mM Dimethyldecylphoshine oxide [Apo-10] (Fluka Corporation)

T1 sequence (P05121 24-402): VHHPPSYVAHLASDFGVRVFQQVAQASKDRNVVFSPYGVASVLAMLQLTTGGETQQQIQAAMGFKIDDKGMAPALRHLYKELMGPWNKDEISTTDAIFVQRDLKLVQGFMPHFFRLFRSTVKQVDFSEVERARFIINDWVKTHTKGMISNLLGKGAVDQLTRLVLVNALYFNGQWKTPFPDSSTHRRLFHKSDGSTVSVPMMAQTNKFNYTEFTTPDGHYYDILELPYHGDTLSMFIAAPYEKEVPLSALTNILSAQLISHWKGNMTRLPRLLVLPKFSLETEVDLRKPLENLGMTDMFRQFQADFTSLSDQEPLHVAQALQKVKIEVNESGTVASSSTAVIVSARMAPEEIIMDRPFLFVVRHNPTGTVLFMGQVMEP

Regarding `CCCCCCCOc1ccc(N(CCCCc2ccccc2)C(=O)C(=O)O)cc1-c1ccc(OC(F)(F)F)cc1` [Compound 394], the 50% inhibitory concentration (IC50) came to 220 nM. The inhibition at 3 µM (read-out: Inhibition Rate of PAI-1 Activity (%)) is over 99%.

Consider `O=C(O)c1cc(-c2ccc(OC(F)(F)F)cc2)ccc1OCc1ccccc1` [Compound 401], for which the “Inhibition Rate of PAI-1 Activity (%)” value was 15% (compound concentration 3 μM), 17% (compound concentration 10 μM) and 53% (compound concentration 25 μM).

For the compound `CCCCOc1ccc(-c2ccc(OC(F)(F)F)cc2)cc1/C=C/C(=O)O` [Compound 405], the “Inhibition Rate of PAI-1 Activity (%)” value by setting is: (compound concentration 1 μM) 14%; (compound concentration 3 μM) 63%; (compound concentration 10 μM) over 99%; (compound concentration 25 μM) 95%.

Take `CCCCOc1ccc(-c2ccc(OC(F)(F)F)cc2)cc1CCC(=O)O` [Compound 407]: the “Inhibition Rate of PAI-1 Activity (%)” value is given as 14% (compound concentration 1 μM), 41% (compound concentration 3 μM), over 99% (compound concentration 10 μM) and 98% (compound concentration 25 μM).

On to `CC(C)(C)c1ccc(COc2ccc(NS(=O)(=O)c3ccc(OC(F)(F)F)cc3)cc2CCC(=O)O)cc1` [Compound 415], for which the “Inhibition Rate of PAI-1 Activity (%)” value is recorded as 41% (compound concentration 1 μM), 98% (compound concentration 3 μM), over 99% (compound concentration 10 μM) and over 99% (compound concentration 25 μM).

On to `CN(C(=O)c1ccc(OC(F)(F)F)cc1)c1ccc(OCc2ccc(C(C)(C)C)cc2)c(CCC(=O)O)c1` [Compound 416], for which the “Inhibition Rate of PAI-1 Activity (%)” value (compound concentration 1 μM) stood at 26%, the “Inhibition Rate of PAI-1 Activity (%)” value (compound concentration 3 μM) is reported as 54%, the “Inhibition Rate of PAI-1 Activity (%)” value (compound concentration 10 μM) was over 99% and the “Inhibition Rate of PAI-1 Activity (%)” value (compound concentration 25 μM) is listed as over 99%.

Take `CC(C)(C)c1ccc(COc2ccc(N3CCN(c4ccc(OC(F)(F)F)cc4)CC3)cc2/C=C/C(=O)O)cc1` [Compound 418]: the “Inhibition Rate of PAI-1 Activity (%)” value (compound concentration 1 μM) is 73%, the “Inhibition Rate of PAI-1 Activity (%)” value (compound concentration 3 μM) was 95%, the “Inhibition Rate of PAI-1 Activity (%)” value (compound concentration 10 μM) turned out to be 94% and the “Inhibition Rate of PAI-1 Activity (%)” value (compound concentration 25 μM) came to 90%.

With `CC(C)(C)c1ccc(COc2ccc(N3CCN(c4ccc(OC(F)(F)F)cc4)CC3)cc2CCC(=O)O)cc1` [Compound 419], the “Inhibition Rate of PAI-1 Activity (%)” value reads like this: (compound concentration 1 μM) 41%; (compound concentration 3 μM) 93%; (compound concentration 10 μM) 98%; (compound concentration 25 μM) over 99%.

With `CC(C)(C)c1ccc(COc2ccc(-c3ccc(OC(F)(F)F)cc3)cc2C(=O)O)cc1` [Compound 421], the “Inhibition Rate of PAI-1 Activity (%)” value reads like this: (compound concentration 0.1 μM) 0%; (compound concentration 0.3 μM) 3%; (compound concentration 1 μM) 14%; (compound concentration 3 μM) 81%.

Take `CCCCC(CC(=O)O)c1cc(-c2ccc(OC(F)(F)F)cc2)ccc1Oc1ccc(C(C)(C)C)cc1` (stereo not drawn) [Compound 422]: the “Inhibition Rate of PAI-1 Activity (%)” value reads like this: (compound concentration 0.1 μM) 12%; (compound concentration 0.3 μM) 24%; (compound concentration 1 μM) 72%; (compound concentration 3 μM) over 99%.

In the case of `CCCCC(Nc1cc(-c2ccc(OC(F)(F)F)cc2)ccc1Oc1ccc(C(C)(C)C)cc1)C(=O)O` (stereo not drawn) [Compound 423], the “Inhibition Rate of PAI-1 Activity (%)” value reads like this: (compound concentration 0.1 μM) 1%; (compound concentration 0.3 μM) 1%; (compound concentration 1 μM) 74%; (compound concentration 3 μM) 96%.

In the case of `CCCCCOc1cc(-c2ccc(OC(F)(F)F)cc2)cc(OCCCCC)c1OCC(=O)O` [Compound 424], the “Inhibition Rate of PAI-1 Activity (%)” value (compound concentration 0.1 μM) is reported as 0%, the “Inhibition Rate of PAI-1 Activity (%)” value (compound concentration 0.3 μM) stood at 4%, the “Inhibition Rate of PAI-1 Activity (%)” value (compound concentration 1 μM) amounted to 38% and the “Inhibition Rate of PAI-1 Activity (%)” value (compound concentration 3 μM) is over 99%.

For `CCCCCCCOc1cc(-c2ccc(OC(F)(F)F)cc2)cc(OCCCCCCC)c1OCC(=O)O` [Compound 425], the “Inhibition Rate of PAI-1 Activity (%)” value is, setting by setting: (compound concentration 0.1 μM) 17%; (compound concentration 0.3 μM) 54%; (compound concentration 1 μM) over 99%.

Regarding `CCCCC(Oc1cc(Oc2ccc(C(C)(C)C)cc2)cc(-c2ccc(OC(F)(F)F)cc2)c1)C(=O)O` (stereo not drawn) [Compound 426], the “Inhibition Rate of PAI-1 Activity (%)” value is recorded as 10% (compound concentration 0.1 μM), 29% (compound concentration 0.3 μM), 95% (compound concentration 1 μM) and 97% (compound concentration 3 μM).

With `CC(C)(C)c1ccc(Oc2cc(OCC(=O)O)cc(-c3ccc(OC(F)(F)F)cc3)c2)cc1` [Compound 427], the “Inhibition Rate of PAI-1 Activity (%)” value (compound concentration 0.1 μM) is given as 1%, the “Inhibition Rate of PAI-1 Activity (%)” value (compound concentration 0.3 μM) is given as 27%, the “Inhibition Rate of PAI-1 Activity (%)” value (compound concentration 1 μM) was 62% and the “Inhibition Rate of PAI-1 Activity (%)” value (compound concentration 3 μM) is listed as 97%.

For the compound `CCCCN(CC(=O)O)c1cc(-c2ccc(OC(F)(F)F)cc2)ccc1Oc1ccc(C(C)(C)C)cc1` [Compound 428], the “Inhibition Rate of PAI-1 Activity (%)” value by setting is: (compound concentration 0.1 μM) 18%; (compound concentration 0.3 μM) 36%; (compound concentration 1 μM) 92%; (compound concentration 3 μM) 94%.

For `CCCCCCOc1ccc(-c2ccc(OC(F)(F)F)cc2)cc1OC(CCCCCC)C(=O)O` (stereo not drawn) [Compound 429], the “Inhibition Rate of PAI-1 Activity (%)” value turned out to be 7% (compound concentration 0.1 μM), 9% (compound concentration 0.3 μM), 93% (compound concentration 1 μM) and 95% (compound concentration 3 μM).

Consider `CCCCCCOc1cc(-c2ccc(OC(F)(F)F)cc2)ccc1OC(CCCCCC)C(=O)O` (stereo not drawn) [Compound 430], for which the “Inhibition Rate of PAI-1 Activity (%)” value (compound concentration 0.1 μM) came out at 1%, the “Inhibition Rate of PAI-1 Activity (%)” value (compound concentration 0.3 μM) amounted to 15%, the “Inhibition Rate of PAI-1 Activity (%)” value (compound concentration 1 μM) is 97% and the “Inhibition Rate of PAI-1 Activity (%)” value (compound concentration 3 μM) is over 99%.

On to `CC(C)(C)c1ccc(Oc2ccc(Nc3ccc(OC(F)(F)F)cc3)cc2/C=C/C(=O)O)cc1` [Compound 431], for which the “Inhibition Rate of PAI-1 Activity (%)” value by setting is: (compound concentration 0.1 μM) 0%; (compound concentration 0.3 μM) 0%; (compound concentration 1 μM) 77%; (compound concentration 3 μM) over 99%.

In the case of `CC(C)(C)c1ccc(Oc2ccc(Nc3ccc(OC(F)(F)F)cc3)cc2CCC(=O)O)cc1` [Compound 432], the “Inhibition Rate of PAI-1 Activity (%)” value is reported as 4% (compound concentration 0.1 μM), 0% (compound concentration 0.3 μM), 25% (compound concentration 1 μM) and 97% (compound concentration 3 μM).

In the case of `CCCCN(CC(=O)O)c1cc(-c2ccc(OC(F)(F)F)cc2)ccc1OCCCCc1ccccc1` [Compound 433], the “Inhibition Rate of PAI-1 Activity (%)” value is, setting by setting: (compound concentration 0.1 μM) 13%; (compound concentration 0.3 μM) 6%; (compound concentration 1 μM) 41%; (compound concentration 3 μM) 98%.

With `CC(C)(C)c1ccc(Oc2cc(-c3ccc(OC(F)(F)F)cc3)ccc2C(=O)O)cc1` [Compound 434], the “Inhibition Rate of PAI-1 Activity (%)” value is 14% (compound concentration 0.1 μM), 8% (compound concentration 0.3 μM), 66% (compound concentration 1 μM) and over 99% (compound concentration 3 μM).

In the case of `CCCN(CC(=O)O)c1cc(-c2ccc(OC(F)(F)F)cc2)ccc1Oc1ccc(C(C)(C)C)cc1` [Compound 435], the “Inhibition Rate of PAI-1 Activity (%)” value (compound concentration 0.1 μM) stood at 12%, the “Inhibition Rate of PAI-1 Activity (%)” value (compound concentration 0.3 μM) came out at 29%, the “Inhibition Rate of PAI-1 Activity (%)” value (compound concentration 1 μM) is listed as 81% and the “Inhibition Rate of PAI-1 Activity (%)” value (compound concentration 3 μM) amounted to 98%.

Consider `CC(C)(C)c1cccc(Oc2cc(-c3ccc(OC(F)(F)F)cc3)ccc2OCC(=O)O)c1` [Compound 436], for which the “Inhibition Rate of PAI-1 Activity (%)” value (compound concentration 0.1 μM) is listed as 3%, the “Inhibition Rate of PAI-1 Activity (%)” value (compound concentration 0.3 μM) is 19%, the “Inhibition Rate of PAI-1 Activity (%)” value (compound concentration 1 μM) worked out at 63% and the “Inhibition Rate of PAI-1 Activity (%)” value (compound concentration 3 μM) is given as over 99%.

`CC(C)(C)c1cccc(Oc2ccc(-c3ccc(OC(F)(F)F)cc3)cc2/C=C/C(=O)O)c1` [Compound 437]: the “Inhibition Rate of PAI-1 Activity (%)” value reads like this: (compound concentration 0.1 μM) 0%; (compound concentration 0.3 μM) 12%; (compound concentration 1 μM) 67%; (compound concentration 3 μM) 98%.

For the compound `CC(C)(C)c1cccc(Oc2ccc(-c3ccc(OC(F)(F)F)cc3)cc2CCC(=O)O)c1` [Compound 438], the “Inhibition Rate of PAI-1 Activity (%)” value was 13% (compound concentration 0.1 μM), 11% (compound concentration 0.3 μM), 50% (compound concentration 1 μM) and over 99% (compound concentration 3 μM).

`CC(C)(C)c1cccc(Oc2ccc(-c3ccc(OC(F)(F)F)cc3)cc2OCC(=O)O)c1` [Compound 439]: the “Inhibition Rate of PAI-1 Activity (%)” value was 12% (compound concentration 0.1 μM), 9% (compound concentration 0.3 μM), 44% (compound concentration 1 μM) and over 99% (compound concentration 3 μM).

Consider `CCCCCOc1ccc(-c2ccc(OCC(=O)O)c(Oc3ccc(C(C)(C)C)cc3)c2)cc1` [Compound 440], for which the “Inhibition Rate of PAI-1 Activity (%)” value is on record as 0% (compound concentration 0.1 μM), 3% (compound concentration 0.3 μM), 96% (compound concentration 1 μM) and over 99% (compound concentration 3 μM).

In the case of `CC(C)c1ccc(-c2ccc(OCC(=O)O)c(Oc3ccc(C(C)(C)C)cc3)c2)cc1` [Compound 441], the “Inhibition Rate of PAI-1 Activity (%)” value by setting is: (compound concentration 0.1 μM) 9%; (compound concentration 0.3 μM) 29%; (compound concentration 1 μM) 89%; (compound concentration 3 μM) 98%.

Take `CC(C)(C)c1ccc(Oc2cc(-c3ccc(OC(F)(F)F)cc3)ccc2NCC(=O)O)cc1` [Compound 442]: the “Inhibition Rate of PAI-1 Activity (%)” value (compound concentration 0.1 μM) is 1%, the “Inhibition Rate of PAI-1 Activity (%)” value (compound concentration 0.3 μM) worked out at 4%, the “Inhibition Rate of PAI-1 Activity (%)” value (compound concentration 1 μM) stood at 83% and the “Inhibition Rate of PAI-1 Activity (%)” value (compound concentration 3 μM) is on record as over 99%.

On to `CCCCc1ccc(-c2ccc(OCC(=O)O)c(Oc3ccc(C(C)(C)C)cc3)c2)cc1` [Compound 443], for which the “Inhibition Rate of PAI-1 Activity (%)” value is listed as 7% (compound concentration 0.1 μM), 8% (compound concentration 0.3 μM), 76% (compound concentration 1 μM) and over 99% (compound concentration 3 μM).

By IC50 is commonly meant the concentration that gives 50% inhibition. As a reminder, the inhibition is the change of the read-out against control, counted positive when it falls.
